pKi: −log10 of the molar value.
Molecular target: T1, CCR2 (Homo sapiens, UniProt P41597)
T1 construct: Membranes were prepared from THP-1 cells; endogenous in cells; host or cells: THP-1 cells (membrane preparation)
T1 sequence (P41597 1-360 isoform P41597-2): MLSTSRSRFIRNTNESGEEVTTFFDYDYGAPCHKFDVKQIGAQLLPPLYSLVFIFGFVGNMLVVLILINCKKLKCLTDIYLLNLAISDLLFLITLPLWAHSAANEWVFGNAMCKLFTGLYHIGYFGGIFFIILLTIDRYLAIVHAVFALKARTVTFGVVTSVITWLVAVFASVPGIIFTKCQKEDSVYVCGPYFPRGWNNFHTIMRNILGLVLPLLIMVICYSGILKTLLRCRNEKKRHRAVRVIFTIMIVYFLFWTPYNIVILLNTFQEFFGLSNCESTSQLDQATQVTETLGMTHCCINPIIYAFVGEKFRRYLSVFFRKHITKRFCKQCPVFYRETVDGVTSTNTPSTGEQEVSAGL
Assay: CCR2 receptor membrane binding assay ([125I]MCP-1, THP-1 cell membranes, SPA beads)
Conditions: for remaining activity at 10 µM: read-out: CCR2 % ctrl @ 10 μM; for pKi: dissociation constant hKi, [125I]MCP-1 binding to THP-1 membranes
Method: The above exemplary substances have been tested for binding to CCR2 using a binding assay as outlined herein below:
THP-1 cells (human acute monocytic leukaemia cells) were cultured under standardized conditions at 37° C. and 5% CO2 in a humidified incubator. THP-1 cells were cultivated in RPMI 1640 medium (Gibco 21875) containing 1% MEM-NEAA (Gibso 11140) 2 mM L-glutamine, 1.5 g/L sodium bicarbonate, 4.5 g/L glucose, 10 mM HEPES and 1.0 mM sodium pyruvate, 90%; 10% fetal calf serum (FCS Gibco 10500-064).
Membranes were prepared from THP-1 cells. THP-1 cells were centrifuged at 300×g at 4° C. for 10 min. The cell pellet was resuspendet in Phosphate Buffer Saline (PBS, including 10 μM Pefabloc and a protease inhibitor mix ‘complete’, Boehringer Mannheim (1 tablet/50 ml)), to a concentration of […]. The membrane preparation was performed by disrupting the cells by nitrogen […] (at 50 bar, for 1 h) in a “Nitrogen Bombe” (Parr Instrument). Cell debris was removed by centrifugation (800×g at 4° C., 1 min). The supernatant was centrifuged at 80000×g, 4° C. for 30 min to sediment the cell membranes. Usually 50 mg of protein (Bradford assay) were yielded from 1×10E9 cells. The membranes were resuspendet in 25 mM HEPES, 25 mM MgCl2, 1 mM CaCl2, 10% Glycerine for storage in aliquots at −80° C. in 25 mM HEPES, 25 mM MgCl2, 1 mM CaCl2, 10% Glycerine and stored at −80° C.
Receptor Membrane Binding Assay:
Perkin Elmer NEX 332 Jod 125 MCP-1, Stock: 2200 Ci/mmol solved in 2000 μl assay buffer, stored at −20° C. THP-1 membrane were adjusted with 25 mM HEPES, pH 7.2; 5 mM MgCl2; 0.5 mM CaCl2; 0.2% BSA assay buffer to a concentration of […]. Amersham Biosciences PVT-WGA Beads (RPNQ0001) were adjusted with assay buffer to a concentration of 0.24 mg/30 μl. For preparation of the membrane-bead-suspension membranes and beads were incubated for 30 min at RT under rotation (60 rpm) with a ratio of 1:2. Test compounds dissolved in 100% DMSO to a concentration of 10 mM and are further diluted with 100% DMSO to 1 mM. All additional compound dilutions were obtained with assay buffer, final 1% DMSO. Compounds, membrane-bead-suspension and [125I]MCP-1 (ca. 25000 cpm/10 μl) were incubated. Bound radioactivity was determined by scintillation counter after 8 h. Determination of affinity of test compounds (dissociation constant hKi) is calculated by iterative fitting of experimental data using the “easy sys” program, which is based on law of mass action (Schittkowski K. (1994), Numerische Mathematik, Vol. 68, 129-142).

[1] = @ 10 μM test compound, THP-1 membranes

Row | Structure (SMILES) | remaining activity at 10 µM [1] [%] | pKi | CCR2 % ctrl @ 10 μM (@ 10 μM test compound, THP-1 membranes, 10 µM) [% ctrl]
1 | Cc1nc(NCc2ccc(C(C)(C)C)cc2)c(C)c(C(=O)N2CCC(N3CCC(S(=O)(=O)N(C)C)CC3)CC2)n1 [Example 207] | 35 | 5.93 | –
2 | Cc1c(NCCc2ccc(C(C)(C)C)cc2)ncnc1C(=O)N1CCC(N2CCCCC2)CC1 [Example 129] | 21 | 6.47 | –
3 | CNC(=O)C1CCN(C2CCN(C(=O)c3ncnc(NCCc4ccc(Cl)c(Cl)c4)c3C)CC2)CC1 [Example 173] | 6 | 7.05 | –
4 | CCS(=O)(=O)N(C)C1CCN(C2CCN(C(=O)c3ncnc(NCc4ccc(Cl)c(Cl)c4)c3C)CC2)CC1 [Example 35] | 5 | 7.62 | –
5 | Cc1c(NCc2ccc(F)c(Cl)c2)ncnc1C(=O)N1CCC(N2CCC(N(C)S(C)(=O)=O)CC2)CC1 [Example 68] | 7 | 7.01 | –
6 | Cc1c(NCc2cccc(-c3ccccc3)c2)ncnc1C(=O)N1CCC(N2CCOC(C)C2)CC1 (centres unmarked) [Example 234] | 19 | 6.40 | –
7 | Cc1c(NCc2ccc(C(C)(C)C)cc2)ncnc1C(=O)N1CCC(N2CCC[C@@H]2CC(=O)N(C)C)CC1 [Example 216] | 59 | 5.37 | –
8 | Cc1c(NCc2ccc(C(F)(F)F)cc2F)ncnc1C(=O)N1CCC(N2CCC(O)CC2)CC1 [Example 21] | 51 | 5.58 | –
9 | Cc1c(NC[C@H]2C[C@@H](c3ccc(Cl)cc3)C2)ncnc1C(=O)N1CCC(N2CCC(N(C)S(C)(=O)=O)CC2)CC1 [Example 159wb] | – | 7.80 | –
10 | Cc1c(NCC2CCCN(c3ccc(C#N)c(Cl)c3)C2)ncnc1C(=O)N1CCC(N2CCC(N(C)S(C)(=O)=O)CC2)CC1 (centres unmarked) [Example 154] | 15 | 6.91 | –
11 | Cc1c(C(=O)N2CCC(N3CCC(NS(C)(=O)=O)CC3)CC2)ccnc1NCc1ccc(Cl)c(Cl)c1 [Example 274] | 48 | 5.35 | –
12 | Cc1c(NCc2ccc(C(C)(C)C)cc2)ncnc1C(=O)N1CCC(N2CCC(COc3ccccc3)C2)CC1 (centres unmarked) [Example 228ge] | – | 7.43 | –
13 | CCS(=O)(=O)NC1CCN(C2CCN(C(=O)c3ncnc(NCc4ccc(C(C)(C)C)cc4)c3C)CC2)CC1 [Example 264] | 3 | 7.39 | –
14 | COC1COCCC1N(C)C1CCN(C(=O)c2ncnc(NC[C@H]3CCC[C@@H](c4ccccc4)C3)c2C)CC1 (some centres unmarked) [Example 275dj] | – | 8.40 | –
15 | COc1nc(OCc2ccc(C(C)(C)C)cc2)c(C)c(C(=O)N2CCC(N3CCC(N(C)S(C)(=O)=O)CC3)CC2)n1 [Example 301] | – | 7.66 | –
16 | Cc1c(C(=O)N2CCC(N3CCC(N(C)S(C)(=O)=O)CC3)CC2)ncnc1-c1ccc(C(C)(C)C)cc1 [Example 289] | 34 | 5.78 | –
17 | Cc1nc(NC[C@H]2CC[C@H](c3ccc(F)c(C)c3)O2)c(C)c(C(=O)N2CCC(N3CCC(N(C)S(C)(=O)=O)CC3)CC2)n1 [Example 159ya] | – | 7.74 | –
18 | CO[C@@H]1CCN(C2CCN(C(=O)c3ncnc(NCc4ccc(C(C)(C)C)cc4)c3C)CC2)C1 [Example 219] | 22 | 6.32 | –
19 | Cc1c(NCc2ccc(Cl)c(Cl)c2)ncnc1C(=O)N1CCC(N2CCC(NS(=O)(=O)C(C)C)CC2)CC1 [Example 197] | 4 | 7.48 | –
20 | Cc1ccc(CNc2ncnc(C(=O)N3CCC(N4CCCCC4)CC3)c2C)cc1F [Example 104] | – | 6.21 | 31

Continued by rising pKi, values first:

Row | remaining activity at 10 µM [1] [%] | pKi | CCR2 % ctrl @ 10 μM (@ 10 μM test compound, THP-1 membranes, 10 µM) [% ctrl] | Structure (SMILES)
21 | 50 | 5.37 | – | Cc1c(NCC2CCN(c3ccccc3)CC2)ncnc1C(=O)N1CCC(N2CCCCC2)CC1 [Example 130]
22 | 41 | 5.71 | – | Cc1c(NCc2cc(F)cc(C(F)(F)F)c2)ncnc1C(=O)N1CCC(N2CCC(O)CC2)CC1 [Example 6]
23 | 15 | 5.79 | – | Cc1c(/C=C/c2ccc(C(C)(C)C)cc2)ncnc1C(=O)N1CCC(N2CCOCC2)CC1 [Example 271]
24 | 30 | 6.04 | – | Cc1c(NCC2Cc3ccccc32)ncnc1C(=O)N1CCC(N2CCC(O)CC2)CC1 (centres unmarked) [Example 26]
25 | 17 | 6.22 | – | Cc1c(OCc2ccc(C(C)(C)C)cc2)ncnc1C(=O)N1CCC(N2CCOCC2)CC1 [Example 298]
26 | 28 | 6.28 | – | Cc1c(NCc2ccc(Cl)cc2)ncnc1C(=O)N1CCC(N2CCC(O)CC2)CC1 [Example 110]
27 | 25 | 6.36 | – | Cc1c(NCc2ccc(Cl)c(Cl)c2)ncnc1C(=O)N1CCC(N2CC[C@H](C(N)=O)C2)CC1 [Example 256]
28 | 14 | 6.61 | – | Cc1c(NCc2ccc(C(C)(C)C)cc2)ncnc1C(=O)N1CCC(N2CC(NS(C)(=O)=O)C2)CC1 [Example 223]
29 | 23 | 6.63 | – | Cc1nc(NCCc2ccc(Cl)c(Cl)c2)c(C)c(C(=O)N2CCC(N3CCC(O)CC3)CC2)n1 [Example 91]
30 | 8 | 6.75 | – | Cc1ccc(CNc2ncnc(C(=O)N3CCC(N4CCC(N(C)S(C)(=O)=O)CC4)CC3)c2C)cc1F [Example 65]
31 | 12 | 6.76 | – | CNS(=O)(=O)C1CCN(C2CCN(C(=O)c3ncnc(NCc4ccc(C(C)(C)C)cc4)c3C)CC2)CC1 [Example 221]
32 | 15 | 6.87 | – | Cc1cc(COc2ncnc(C(=O)N3CCC(N4CCC(N(C)S(C)(=O)=O)CC4)CC3)c2C)ccc1Cl [Example 292]
33 | 10 | 7.05 | – | Cc1nc(NCC2COc3ccccc3C2)c(C)c(C(=O)N2CCC(N3CCC(N(C)S(C)(=O)=O)CC3)CC2)n1 (centres unmarked) [Example 79]
34 | – | 7.16 | – | Cc1c(NCC2Cc3ccccc3O2)ncnc1C(=O)N1CCC(N2CCC(N(C)S(C)(=O)=O)CC2)CC1 (centres unmarked) [Example 159qb]
35 | 2 | 7.34 | – | Cc1c(NCC2Cc3ccccc3C2)ncnc1C(=O)N1CCC(N2CCC(N(C)S(C)(=O)=O)CC2)CC1 [Example 61]
36 | – | 7.41 | – | Cc1ccc(C2CCC(CNc3ncnc(C(=O)N4CCC(N5CCC(N(C)S(C)(=O)=O)CC5)CC4)c3C)O2)cc1 (centres unmarked) [Example 159cb]
37 | 3 | 7.42 | – | Cc1c(NCc2ccc(C(F)(F)F)c(Cl)c2)ncnc1C(=O)N1CCC(N2CCC(N(C)S(C)(=O)=O)CC2)CC1 [Example 62]
38 | – | 7.74 | – | Cc1cccc([C@H]2CC[C@H](CNc3nc(C)nc(C(=O)N4CCC(N5CCC(N(C)S(C)(=O)=O)CC5)CC4)c3C)O2)c1 [Example 159ja]
39 | – | 7.82 | – | Cc1c(NCC2CCCC(C(C)C)C2)ncnc1C(=O)N1CCC(N2CCC(N(C)S(C)(=O)=O)CC2)CC1 (centres unmarked) [Example 159zb]
40 | 7 | 7.85 | – | Cc1c(NC[C@@H]2CCC[C@H](c3ccccc3)C2)ncnc1C(=O)N1CCC(N2CCC(N(C)S(C)(=O)=O)CC2)CC1 [Example 151]
41 | – | 7.92 | – | Cc1c(NCC2CCC(C(C)(C)C)CC2)ncnc1C(=O)N1CCC(N2CCC(N(C)S(C)(=O)=O)CC2)CC1 (centres unmarked) [Example 159o]
42 | 6 | 7.96 | – | CCS(=O)(=O)N(C)C1CCN(C2CCN(C(=O)c3ncnc(NC[C@H]4CCN(c5ccccc5)C4)c3C)CC2)CC1 [Example 41]
43 | 1 | 8.00 | – | CCS(=O)(=O)N(C)C1CCN(C2CCN(C(=O)c3ncnc(NCCc4ccc(Cl)c(Cl)c4)c3C)CC2)CC1 [Example 36]
44 | – | 8.40 | – | CO[C@@H]1COCC[C@@H]1NC1CCN(C(=O)c2ncnc(NC[C@H]3CCC[C@@H](c4ccc(C)o4)C3)c2C)CC1 [Example 275da]

From US8835440B2, “Cyclic pyrimidin-4-carboxamides as CCR2 receptor antagonists for treatment of inflammation, asthma and COPD” (Boehringer Ingelheim International GmbH, priority 2008, dated 2014)
